These results are taken from patent publication US20090076152A1, “Novel Compounds Active as Muscarinic Receptor Antagonists” (priority 2007, published 2009).

Molecules are shown by their SMILES. Where only a bound is given, the exact number is not on record here.

T1 sequence (P20309 whole entry): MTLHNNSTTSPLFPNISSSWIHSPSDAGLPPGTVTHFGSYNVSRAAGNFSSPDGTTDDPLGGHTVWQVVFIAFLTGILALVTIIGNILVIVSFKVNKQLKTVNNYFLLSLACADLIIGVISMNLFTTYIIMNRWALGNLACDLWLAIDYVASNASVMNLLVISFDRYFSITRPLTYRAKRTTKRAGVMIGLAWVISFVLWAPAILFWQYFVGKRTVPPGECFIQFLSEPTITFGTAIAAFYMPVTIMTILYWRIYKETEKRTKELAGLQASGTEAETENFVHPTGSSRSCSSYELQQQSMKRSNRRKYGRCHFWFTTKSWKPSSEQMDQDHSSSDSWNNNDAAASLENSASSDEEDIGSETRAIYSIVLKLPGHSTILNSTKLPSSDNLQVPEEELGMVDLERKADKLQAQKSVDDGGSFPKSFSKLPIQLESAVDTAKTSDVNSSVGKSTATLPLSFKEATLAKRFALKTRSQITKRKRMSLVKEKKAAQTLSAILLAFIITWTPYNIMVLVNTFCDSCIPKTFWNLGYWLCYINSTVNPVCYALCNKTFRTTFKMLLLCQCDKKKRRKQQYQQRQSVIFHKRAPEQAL

The test addresses T1, human muscarinic M3 receptor (Homo sapiens, UniProt P20309).
T1 construct: expressed in transfected cells
Briefly: hM3 β-Lac potency assay (NFAT-Betalactamase reporter in CHO-K1 cells). The settings on record: CHO cells recombinantly expressing human M3, NFAT β-lactamase reporter; inhibition of 80 nM carbamyl choline signal, 4 h; IC50 converted to Ki by Cheng-Prusoff; read-out: Cell based β-lactamase M3 Ki. The protocol:
M3 potency was determined in CHO-K1 cells transfected with the NFAT-Betalactamase gene. CHO (Chinese Hamster Ovary) cells recombinantly expressing the human muscarinic M3 receptor were transfected with the NFAT_β-Lac_Zeo plasmid. Cells were grown in DMEM with Glutamax-1, supplemented with 25 mM HEPES(Life Technologies 32430-027), containing 10% FCS (Foetal Calf Serum; Sigma F-7524), […] Sodium pyruvate (Sigma S-8636), NEM (non-Essential Amino Acids; Invitrogen 11140-035) and 200 μg/ml Zeocin (Invitrogen R250-01).
Cells were harvested for assay when they reached 80-90% confluency using enzyme free cell Dissociation Solution (Life technologies 13151-014) incubated with the cells for 5 min at 37° C. in an atmosphere containing 5% CO2. Detached cells were collected in warmed growth media and centrifuged at 2000 rpm for 10 min, washed in PBS (Phosphate Buffered Saline; Life Technologies 14190-094) and centrifuged again as just described. The cells were re-suspended at 2×10^5 cells/ml in growth medium (composition as described above). 20 μl of this cell suspension was added to each well of a 384 well black clear bottomed plate (Greiner Bio One 781091-PFI). The assay buffer used was PBS supplemented with 0.05% Pluronic F-127 (Sigma 9003-11-6) and 2.5% DMSO. Muscarinic M3 receptor signalling was stimulated using 80 nM carbamyl choline (Aldrich N240-9) incubated with the cells for 4 h at 37° C./5% CO2 and monitored at the end of the incubation period using a Tecan SpectraFluor+ plate reader (λ—excitation 405 nm, emission 450 nm and 503 nm). M3 receptor antagonists under test were added to the assay at the beginning of the 4 h incubation period and compound activity measured as the concentration dependent inhibition of the carbamyl choline induced signal. Inhibition curves were plotted and IC50 values generated using a 4-parameter sigmoid fit and converted to Ki values using the Cheng-Prusoff correction and the KD value for carbamyl choline in the assay.
As for `CC(C)N(CC[C@H](c1ccccc1)c1cc(CCOc2ccc(CCNC(=O)c3ccc(O)c(Cl)c3)cc2)ccc1O)C(C)C` [Example 1, 3-Chloro-N-[2-(4-{2-[3-((1R)-3-diisopropylamino-1-phenyl-propyl)-4-hydroxy-phenyl]-ethoxy}-phenyl)-ethyl]-4-hydroxy-benzamide], the Ki was 0.512 nM. For the compound `CC(C)N(CC[C@H](c1ccccc1)c1cc(CCOc2ccc(CCNC(=O)Cc3ccc(O)c(Cl)c3)cc2)ccc1O)C(C)C` [Example 2, 2-(3-Chloro-4-hydroxy-phenyl)-N-[2-(4-{2-[3-((1R)-3-diisopropylamino-1-phenyl-propyl)-4-hydroxy-phenyl]-ethoxy}-phenyl)-ethyl]-acetamide], the Ki turned out to be 1.7 nM. To `CC(C)N(CC[C@H](c1ccccc1)c1cc(CCOc2ccc(CCNC(=O)C3CCCC3)cc2)ccc1O)C(C)C` [Example 3, Cyclopentanecarboxylic acid [2-(4-{2-[3-((1R)-3-diisopropylamino-1-phenyl-propyl)-4-hydroxy-phenyl]-ethoxy}-phenyl)-ethyl]-amide] belongs 3.59 nM; to `CC(C)N(CC[C@H](c1ccccc1)c1cc(CCOc2ccc(CCNC(=O)CC3CC3)cc2)ccc1O)C(C)C` [Example 4], 1.19 nM; to `CC(C)N(CC[C@H](c1ccccc1)c1cc(CCOc2ccc(CCNC(=O)c3ccc(O)c(F)c3)cc2)ccc1O)C(C)C` [Example 5, N-[2-(4-{2-[3-((1R)-3-Diisopropylamino-1-phenyl-propyl)-4-hydroxy-phenyl]-ethoxy}-phenyl)-ethyl]-3-fluoro-4-hydroxy-benzamide], 5.36 nM. To `CC(C)N(CC[C@H](c1ccccc1)c1cc(CCOc2ccc(CCNC(=O)[C@]34C[C@H]5C[C@H](C[C@H](C5)C3)C4)cc2)ccc1O)C(C)C` [Example 6, (3S,5S,7S)-N-{2-[4-(2-{3-[(1R)-3-(diisopropylamino)-1-phenylpropyl]-4-hydroxyphenyl}ethoxy)phenyl]ethyl}adamantane-1-carboxamide] belongs 4.99 nM; to `CC(C)N(CC[C@H](c1ccccc1)c1cc(CCOc2ccc(CCNC(=O)c3ccc(O)cc3Cl)cc2)ccc1O)C(C)C` [Example 7, 2-Chloro-N-[2-(4-{2-[3-((1R)-3-diisopropylamino-1-phenyl-propyl)-4-hydroxy-phenyl]-ethoxy}-phenyl)-ethyl]-4-hydroxy-benzamide], 0.727 nM. The figure for `CC(C)N(CC[C@H](c1ccccc1)c1cc(CCOc2ccc(CCN(C)C)cc2)ccc1O)C(C)C` [Example 8, 2-((1R)-3-Diisopropylamino-1-phenyl-propyl)-4-{2-[4-(2-dimethylamino-ethyl)-phenoxy]-ethyl}-phenol] is 1.4 nM; for `CC(C)N(CC[C@H](c1ccccc1)c1cc(CCOc2ccc(CCNCc3ccccc3)cc2)ccc1O)C(C)C` [Example 9, 4-{2-[4-(2-Benzylamino-ethyl)-phenoxy]-ethyl}-2-((1R)-3-diisopropylamino-1-phenyl-propyl)-phenol] it is 0.785 nM. As to `CC(C)N(CC[C@H](c1ccccc1)c1cc(CCOc2ccc(CCNCc3cccc(Cl)c3)cc2)ccc1O)C(C)C` [Example 10, 4-(2-{4-[2-(3-Chloro-benzylamino)-ethyl]-phenoxy}-ethyl)-2-((1R)-3-diisopropylamino-1-phenyl-propyl)-phenol], the Ki worked out at 7.73 nM.

Turning to `CC(C)N(CC[C@H](c1ccccc1)c1cc(CCOc2ccc(CCNC3CCCCC3)cc2)ccc1O)C(C)C` [Example 11, 4-{2-[4-(2-Cyclohexylamino-ethyl)-phenoxy]-ethyl}-2-((1R)-3-diisopropylamino-1-phenyl-propyl)-phenol], the inhibition constant Ki was 6.06 nM. Regarding `CC(C)N(CC[C@H](c1ccccc1)c1cc(CCOc2ccc(CCNCc3ccc(O)c(Cl)c3)cc2)ccc1O)C(C)C` [Example 12, 2-chloro-4-[({2-[4-(2-{3-[(1R)-3-(diisopropylamino)-1-phenylpropyl]-4-hydroxyphenyl}ethoxy)phenyl]ethyl}amino)methyl]phenol], the inhibition constant Ki is more than 12.5 nM. As for `CC(C)N(CC[C@H](c1ccccc1)c1cc(CCOc2ccc(CCNCc3ccc(O)c(F)c3)cc2)ccc1O)C(C)C` [Example 13, 2-[(1R)-3-(diisopropylamino)-1-phenylpropyl]-4-[2-(4-{2-[(3-fluoro-4-hydroxybenzyl)amino]ethyl}phenoxy)ethyl]phenol], the Ki was more than 12.1 nM. To `CC(C)N(CC[C@H](c1ccccc1)c1cc(CCOc2ccc(CCNCc3cccc(F)c3O)cc2)ccc1O)C(C)C` [Example 14, 2-[(1R)-3-(diisopropylamino)-1-phenylpropyl]-4-[2-(4-{2-[(3-fluoro-2-hydroxybenzyl)amino]ethyl}phenoxy)ethyl]phenol] belongs 1.4 nM; to `CC(C)N(CC[C@H](c1ccccc1)c1cc(CCOc2ccc(CCNCc3cc(F)c(O)c(F)c3)cc2)ccc1O)C(C)C` [Example 15, 4-{[2-(4-{2-[3-((1R)-3-Diisopropylamino-1-phenyl-propyl)-4-hydroxy-phenyl]-ethoxy}-phenyl)-ethylamino]-methyl}-2,6-difluoro-phenol], 1.55 nM.

In the case of `CC(C)N(CC[C@H](c1ccccc1)c1cc(CCOc2ccc(CCNCc3cc(Cl)c(O)c(Cl)c3)cc2)ccc1O)C(C)C` [Example 16, 2,6-Dichloro-4-{[2-(4-{2-[3-((1R)-3-diisopropylamino-1-phenyl-propyl)-4-hydroxy-phenyl]-ethoxy}-phenyl)-ethylamino]-methyl}-phenol], the Ki is more than 6.87 nM. To `CC(C)N(CC[C@H](c1ccccc1)c1cc(CCOc2ccc(CCNCc3cccc(O)c3Cl)cc2)ccc1O)C(C)C` [Example 17, 2-chloro-3-[({2-[4-(2-{3-[(1R)-3-(diisopropylamino)-1-phenylpropyl]-4-hydroxyphenyl}ethoxy)phenyl]ethyl}amino)methyl]phenol] belongs 1 nM; to `CC(C)N(CC[C@H](c1ccccc1)c1cc(CCOc2ccc(CCNCc3cccc(O)c3)cc2)ccc1O)C(C)C` [Example 18, 2-((1R)-3-Diisopropylamino-1-phenyl-propyl)-4-(2-{4-[2-(3-hydroxy-benzylamino)-ethyl]-phenoxy}-ethyl)-phenol], more than 10.4 nM. As to `CC(C)N(CC[C@H](c1ccccc1)c1cc(CCOc2ccc(CCNCc3cccc(O)c3F)cc2)ccc1O)C(C)C` [Example 19, 3-[({2-[4-(2-{3-[(1R)-3-(diisopropylamino)-1-phenylpropyl]-4-hydroxyphenyl}ethoxy)phenyl]ethyl}amino)methyl]-2-fluorophenol], the Ki was found to be 2.69 nM. For `CC(C)N(CC[C@H](c1ccccc1)c1cc(CCOc2ccc(CCNCc3cc(F)c(O)c(Cl)c3)cc2)ccc1O)C(C)C` [Example 20, 2-Chloro-4-{[2-(4-{2-[3-((1R)-3-diisopropylamino-1-phenyl-propyl)-4-hydroxy-phenyl]-ethoxy}-phenyl)-ethylamino]-methyl}-6-fluoro-phenol], the Ki was more than 5.89 nM. The figure for `CC(C)N(CC[C@H](c1ccccc1)c1cc(CCOc2ccc(CCNCc3cc(O)cc(O)c3)cc2)ccc1O)C(C)C` [Example 21, 5-{[2-(4-{2-[3-((1R)-3-Diisopropylamino-1-phenyl-propyl)-4-hydroxy-phenyl]-ethoxy}-phenyl)-ethylamino]-methyl}-benzene-1.3-diol] is more than 5.75 nM.

The term Ki denotes a measure of affinity in units of concentration, obtained from inhibition or displacement.
